Among the data in patent publication US6630489B1, “Quinoline derivatives as tyrosine kinase inhibitors” (Astrazeneca AB, priority 1999, dated 2003) are IC50 values, retold here.

The target in one assay is T1, p56^lck enzyme (Homo sapiens, UniProt P06239).
T1 construct: fused on or other part: N-terminal 6-His tag
As to the kind of experiment: In vitro enzyme assay, Test (a): inhibition of p56lck phosphorylation of a tyrosine-containing polypeptide substrate (Elisa). The class given is biochemical. As to conditions: inhibition of phosphorylation by p56lck. The method, then: (a) In vitro Enzyme Assay
The ability of test compounds to inhibit phosphorylation by the enzyme p56^lck of a tyrosine-containing polypeptide substrate was assessed using a conventional Elisa assay.
The following conventional procedure was used to obtain p56^lck enzyme. An EcoR1/Not1 fragment containing the entire coding sequence of p56^lck was generated by the technique of polymerase chain reaction (PCR) from Incyte clone No. 2829606. A 6-His tag was added to the sequence at the N-terminus during the PCR stage. Conventional sequence analysis identified a number of changes compared to the published sequence and these were found also to have been present in the original Incyte template. To achieve expression of the enzyme, the PCR fragment was inserted downstream of the polyhedrin promotor of pFASTBAC1 (Life Technologies Limited, Paisley, UK, Catalogue No. 10360-014). A recombinant Baculovirus was constructed using the Bac-to-Bac system (Life Technologies Limited). High Five insect cells (Invitrogen BV, PO Box 2312, 9704 CH Groningen, The Netherlands, Catalogue No. B855-02) were infected with the recombinant Baculovirus at a multiplicity of infection of 1 and incubated for 48 hours. The cells were harvested. […]

Assay [1] relates to human peripheral blood mononuclear cells (T cell proliferation). As to the kind of experiment: In vitro T cell proliferation assay, Test (b)(i): T cell receptor stimulation (anti-CD3 antibody). It counts as cell-based. Conditions: human PBMC, T cell receptor stimulation with anti-CD3 antibody, tritiated thymidine. How it is done:
(§1) (b) In vitro T Cell Proliferation Assays
(§2) The ability of test compounds to inhibit T cell proliferation was assessed by using human peripheral blood mononuclear cells and stimulation of the T cells by way of the T cell receptor or other than by way of the T cell receptor.
Peripheral blood mononuclear cells (PBMC) were isolated from heparinised (10 units/ml heparin) human blood by density centrifugation (Lymphoprep™; Nycomed) spinning initially at 2000 rpm at ambient temperature for 20 minutes. Cells at the interphase were transferred to clean tubes, diluted 1:1 with RPMI 1640 medium (Gibco) and spun at 2000 rpm at ambient temperature for 10 minutes. The cell pellet was resuspended in RPMI 1640 medium and spun at 1400 rpm at ambient temperature for 10 minutes. […]
(§3) The extent of inhibition of T cell proliferation at a range of concentrations of each test compound was determined and an IC50 value was calculated. […]
Aliquots (50 μl) of the T cell receptor stimulatory anti-CD3 antibody (Pharmingen Catalogue No. 30100D; 40 ng/ml in assay medium) were added to each well and the cells were incubated for 24 hours at 37° C. in a humidified (5%CO2/95% air) incubator. […] The cells were harvested onto a filter mat and radioactivity was counted using a Wallac 1450 Microbeta Plus liquid scintillation counter.

The test system is the same in assay [2]. As to the kind of experiment: In vitro T cell proliferation assay, Test (b)(ii): non T cell receptor stimulation (PMA and Ionomycin). Conditions: human PBMC, stimulation with PMA and Ionomycin, tritiated thymidine. The class given is cell-based. How it is done:
as §1, §2
Peripheral blood mononuclear cells (PBMC) were isolated from heparinised (10 units/ml heparin) human blood by density centrifugation (Lymphoprep™; Nycomed) spinning initially at 2000 rpm at ambient temperature for 20 minutes. Cells at the interphase were transferred to clean tubes, diluted 1:1 with RPMI 1640 medium (Gibco) and spun at 2000 rpm at ambient temperature for 10 minutes. The cell pellet was resuspended in RPMI 1640 medium and spun at 1400 rpm at ambient temperature for 10 minutes. The cell pellet was resuspended in RPMI 1640 medium and spun at 900 rpm at ambient temperature for 10 minutes to remove platelets. […]
as §3
Aliquots (50 μl) of a mixture of the cell stimulants PMA (phorbol-12-myristate-13-acetate, Sigma Catalogue No. P8139; 40 ng/ml) and Ionomycin (Sigma Catalogue No. I0684; 1.2 μM) were added to each well and the cells were incubated and analysed as described in paragraph (b)(i).

T1 sequence (P06239 whole entry, the tested form may be a part): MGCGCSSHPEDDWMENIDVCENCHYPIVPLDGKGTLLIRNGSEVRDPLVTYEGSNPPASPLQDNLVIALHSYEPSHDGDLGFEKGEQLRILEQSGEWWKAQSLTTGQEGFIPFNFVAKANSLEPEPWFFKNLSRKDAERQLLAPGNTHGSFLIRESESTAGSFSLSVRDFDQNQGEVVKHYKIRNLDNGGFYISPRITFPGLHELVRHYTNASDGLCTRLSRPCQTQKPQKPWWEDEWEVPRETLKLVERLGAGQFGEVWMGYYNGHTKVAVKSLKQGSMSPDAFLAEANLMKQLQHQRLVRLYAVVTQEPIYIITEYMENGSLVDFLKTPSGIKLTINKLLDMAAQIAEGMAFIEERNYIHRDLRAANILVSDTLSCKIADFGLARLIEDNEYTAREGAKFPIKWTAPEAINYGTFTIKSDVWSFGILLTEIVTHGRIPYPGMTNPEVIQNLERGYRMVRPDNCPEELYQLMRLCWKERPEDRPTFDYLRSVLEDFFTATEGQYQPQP

The IC50 is the concentration that gives 50% inhibition. A low value points to greater potency in that assay. `COc1cc2nccc(Oc3ccc(Cl)cc3F)c2cc1C(=O)NCCCN1CCOCC1` [Example 1, 4-(4-chloro-2-fluorophenoxy)-7-methoxy-N-(3-morpholinopropyl)quinoline-6-carboxamide]: the concentration for half-maximal inhibition (IC50) on p56^lck enzyme was approximately 30 nM; in assay [1], approximately 700 nM; in assay [2] it was approximately 18000 nM.
